Source: PubChem BioAssay (NCI)
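Growth conditions: 96-well plates. Treatment: test compound, 48 hours, 5 concentrations. Analysis: linear interpolation between bracketing concentrations; unreached endpoints set to highest concentration. Here, GI50 denotes the concentration required for 50% inhibition of growth. The concentration for full growth arrest is given as TGI.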

How the values were obtained:
Assay in all cases: NCI-60 cell line screen, 48 h
ACHN renal = tested on: ACHN renal
SF-268 CNS = tested on: SF-268 CNS
NCI/ADR-RES ovarian = tested on: NCI/ADR-RES ovarian
DU-145 prostate = tested on: DU-145 prostate
SN12C renal = tested on: SN12C renal
SK-MEL-2 melanoma = tested on: SK-MEL-2 melanoma
M14 melanoma = tested on: M14 melanoma
SNB-19 CNS = tested on: SNB-19 CNS
CAKI-1 renal = tested on: CAKI-1 renal
HOP-62 NSCLC = tested on: HOP-62 NSCLC

Compound: CCCN1C(=O)CC(C)N(Cc2ccccc2Cl)C1=S (stereo not drawn)
- TGI (ACHN renal): 88.4 µM
- TGI (SF-268 CNS): 86.5 µM
- TGI (NCI/ADR-RES ovarian): 53.1 µM
- TGI (DU-145 prostate): > 100 µM
- TGI (SN12C renal): 94.8 µM
- TGI (SK-MEL-2 melanoma): 44.1 µM
- TGI (M14 melanoma): 79.9 µM
- TGI (SNB-19 CNS): > 100 µM
- TGI (CAKI-1 renal): > 100 µM
- TGI (HOP-62 NSCLC): > 100 µM

Compound: CC[C@H](O)[C@H](C)C=C1SCCCS1
- TGI (ACHN renal): > 100 µM
- TGI (SF-268 CNS): > 100 µM
- TGI (NCI/ADR-RES ovarian): > 100 µM
- TGI (DU-145 prostate): > 100 µM
- TGI (SN12C renal): > 100 µM
- TGI (SK-MEL-2 melanoma): > 100 µM
- TGI (M14 melanoma): > 100 µM
- TGI (CAKI-1 renal): > 100 µM
- TGI (HOP-62 NSCLC): > 100 µM

Compound: COC(=O)[C@@H]1[C@@H](c2cccc(Cl)c2)[C@H](C(=O)OC)C2(C[C@@]1(C)O)NCCS2 (stereo partly drawn)
- TGI (ACHN renal): > 100 µM
- TGI (SF-268 CNS): > 100 µM
- TGI (NCI/ADR-RES ovarian): > 100 µM
- TGI (DU-145 prostate): > 100 µM
- TGI (SN12C renal): > 100 µM
- TGI (SK-MEL-2 melanoma): 94 µM
- TGI (M14 melanoma): > 100 µM
- TGI (SNB-19 CNS): > 100 µM
- TGI (CAKI-1 renal): > 100 µM
- TGI (HOP-62 NSCLC): > 100 µM

Compound: CCOC(=O)c1ccc(Nc2c3c(nc4ccccc24)CCCC3)cc1
- TGI (ACHN renal): > 100 µM
- TGI (SF-268 CNS): > 100 µM
- TGI (NCI/ADR-RES ovarian): > 100 µM
- TGI (DU-145 prostate): > 100 µM
- TGI (SN12C renal): > 100 µM
- TGI (SK-MEL-2 melanoma): > 100 µM
- TGI (M14 melanoma): > 100 µM
- TGI (SNB-19 CNS): > 100 µM
- TGI (CAKI-1 renal): > 100 µM
- TGI (HOP-62 NSCLC): > 83.9 µM

Compound: COc1ccc2nc3c([N+](=O)[O-])ccc4c3c(c2c1)NCCN4CCO
- TGI (ACHN renal): 2.25 µM
- TGI (SF-268 CNS): 6.26 µM
- TGI (NCI/ADR-RES ovarian): 4.41 µM
- TGI (DU-145 prostate): 5.34 µM
- TGI (SN12C renal): 2.34 µM
- TGI (SK-MEL-2 melanoma): 1.87 µM
- TGI (M14 melanoma): 1.78 µM
- TGI (SNB-19 CNS): 3.08 µM
- TGI (CAKI-1 renal): 3.06 µM
- TGI (HOP-62 NSCLC): 2.28 µM

Compound: COC(=O)C1=C(C(=O)OC)C(C(=O)c2ccc(Br)cc2)N2N=C(c3ccc(Cl)cc3)C=CC12 (stereo not drawn)
- TGI (ACHN renal): > 100 µM
- TGI (SF-268 CNS): > 100 µM
- TGI (NCI/ADR-RES ovarian): > 100 µM
- TGI (DU-145 prostate): > 100 µM
- TGI (SN12C renal): > 100 µM
- TGI (SK-MEL-2 melanoma): > 100 µM
- TGI (M14 melanoma): > 100 µM
- TGI (SNB-19 CNS): > 100 µM
- TGI (CAKI-1 renal): > 100 µM
- TGI (HOP-62 NSCLC): > 100 µM

Compound: O=C(Nc1cccc(-n2ccc3c(NC(=O)c4ccccc4)nccc32)c1)Nc1cc(C(F)(F)F)cc(C(F)(F)F)c1
- GI50 (ACHN renal): 1.48 µM
- TGI (ACHN renal): 7.61 µM
- GI50 (SF-268 CNS): 2.71 µM
- TGI (SF-268 CNS): > 50 µM
- GI50 (DU-145 prostate): 1.68 µM
- TGI (DU-145 prostate): 7.97 µM
- GI50 (SN12C renal): 2.05 µM
- TGI (SN12C renal): 29.4 µM
- GI50 (SK-MEL-2 melanoma): 1.32 µM
- TGI (SK-MEL-2 melanoma): 4.68 µM
- GI50 (M14 melanoma): 1.11 µM
- TGI (M14 melanoma): 2.56 µM
- GI50 (SNB-19 CNS): 2.32 µM
- TGI (SNB-19 CNS): > 50 µM
- GI50 (CAKI-1 renal): 1.53 µM
- TGI (CAKI-1 renal): 4.32 µM
- GI50 (HOP-62 NSCLC): 3.75 µM
- TGI (HOP-62 NSCLC): > 50 µM

Compound: Nn1c(COc2cccc(OCc3n[nH]c(=S)n3N)c2)n[nH]c1=S
- TGI (ACHN renal): > 100 µM
- TGI (SF-268 CNS): > 100 µM
- TGI (NCI/ADR-RES ovarian): > 100 µM
- TGI (DU-145 prostate): > 100 µM
- TGI (SN12C renal): > 100 µM
- TGI (SK-MEL-2 melanoma): > 100 µM
- TGI (M14 melanoma): > 100 µM
- TGI (SNB-19 CNS): > 100 µM
- TGI (CAKI-1 renal): > 100 µM
- TGI (HOP-62 NSCLC): > 100 µM

Compound: Cc1c(Cl)nc(Nc2nc3ccccc3[nH]2)nc1Cl
- TGI (ACHN renal): > 100 µM
- TGI (SF-268 CNS): > 100 µM
- TGI (NCI/ADR-RES ovarian): > 100 µM
- TGI (DU-145 prostate): > 100 µM
- TGI (SN12C renal): > 100 µM
- TGI (SK-MEL-2 melanoma): > 100 µM
- TGI (M14 melanoma): > 100 µM
- TGI (SNB-19 CNS): > 100 µM
- TGI (CAKI-1 renal): 71.9 µM

Compound: CC(O)c1cc2c(s1)C(=O)c1sccc1C2=O (stereo not drawn)
- TGI (SF-268 CNS): 0.61 µM
- TGI (NCI/ADR-RES ovarian): 0.59 µM
- TGI (DU-145 prostate): 0.0347 µM
- TGI (SN12C renal): 0.192 µM
- TGI (SK-MEL-2 melanoma): 0.215 µM
- TGI (M14 melanoma): 0.0494 µM
- TGI (SNB-19 CNS): 0.292 µM
- TGI (CAKI-1 renal): 1.19 µM
- TGI (HOP-62 NSCLC): 0.406 µM

Compound: O=C1CC2(c3ccccc3)ON=C(c3ccccc3)N2c2ccccc2N1 (stereo not drawn)
- TGI (ACHN renal): > 100 µM
- TGI (SF-268 CNS): > 100 µM
- TGI (NCI/ADR-RES ovarian): > 100 µM
- TGI (DU-145 prostate): > 100 µM
- TGI (SN12C renal): > 100 µM
- TGI (SK-MEL-2 melanoma): > 100 µM
- TGI (M14 melanoma): > 100 µM
- TGI (SNB-19 CNS): > 100 µM
- TGI (HOP-62 NSCLC): > 100 µM

Compound: Cn1c(=O)c(C(=O)Nc2nc(C34CC5CC(CC(C5)C3)C4)cs2)c(O)c2ccccc21
- TGI (ACHN renal): > 100 µM
- TGI (SF-268 CNS): > 100 µM
- TGI (NCI/ADR-RES ovarian): 70.2 µM
- TGI (DU-145 prostate): > 100 µM
- TGI (SN12C renal): > 100 µM
- TGI (SNB-19 CNS): > 100 µM
- TGI (CAKI-1 renal): > 100 µM
- TGI (HOP-62 NSCLC): 36.2 µM

Compound: CC(=O)OCCCOCn1c(Cc2ccccc2)c(C)c(=O)[nH]c1=O
- TGI (ACHN renal): > 100 µM
- TGI (SF-268 CNS): > 100 µM
- TGI (DU-145 prostate): > 100 µM
- TGI (SN12C renal): > 100 µM
- TGI (SK-MEL-2 melanoma): > 100 µM
- TGI (M14 melanoma): > 100 µM
- TGI (SNB-19 CNS): > 100 µM
- TGI (CAKI-1 renal): > 100 µM
- TGI (HOP-62 NSCLC): > 100 µM

Compound: COC(=O)C1C/C(=C/N(C)C)C(=S)N1 (stereo not drawn)
- TGI (ACHN renal): > 100 µM
- TGI (SF-268 CNS): > 100 µM
- TGI (NCI/ADR-RES ovarian): > 100 µM
- TGI (DU-145 prostate): > 100 µM
- TGI (SK-MEL-2 melanoma): > 100 µM
- TGI (M14 melanoma): > 100 µM
- TGI (SNB-19 CNS): > 100 µM
- TGI (CAKI-1 renal): > 100 µM
- TGI (HOP-62 NSCLC): > 100 µM

Compound: CC1(C)N=C(C(N)=O)c2ncn(N)c2N1
- TGI (ACHN renal): > 100 µM
- TGI (SF-268 CNS): > 100 µM
- TGI (NCI/ADR-RES ovarian): > 100 µM
- TGI (DU-145 prostate): > 100 µM
- TGI (SN12C renal): > 100 µM
- TGI (M14 melanoma): > 100 µM
- TGI (SNB-19 CNS): > 100 µM
- TGI (CAKI-1 renal): > 100 µM
- TGI (HOP-62 NSCLC): > 100 µM

Compound: C[C@]12CC[C@H]3[C@@H](CC=C4C[C@@H](N5CCCC5)CC[C@@]43C)[C@@H]1C[C@H](N1CCOCC1)[C@@H]2O
- TGI (ACHN renal): > 100 µM
- TGI (SF-268 CNS): > 100 µM
- TGI (NCI/ADR-RES ovarian): > 100 µM
- TGI (DU-145 prostate): > 100 µM
- TGI (SN12C renal): > 100 µM
- TGI (M14 melanoma): > 10 µM
- TGI (SNB-19 CNS): > 100 µM
- TGI (CAKI-1 renal): > 100 µM
- TGI (HOP-62 NSCLC): > 100 µM

Compound: Cc1cnc2sn(-c3ccc(Oc4ccccc4)cc3)c(=O)c2c1
- TGI (ACHN renal): 31.6 µM
- TGI (SF-268 CNS): 38.2 µM
- TGI (NCI/ADR-RES ovarian): 55.7 µM
- TGI (DU-145 prostate): 37.8 µM
- TGI (SN12C renal): 43 µM
- TGI (SK-MEL-2 melanoma): > 100 µM
- TGI (M14 melanoma): 30.8 µM
- TGI (SNB-19 CNS): 46 µM
- TGI (HOP-62 NSCLC): 36.7 µM

Compound: COC(=O)C1Cc2c(OC)ccc(OC)c2CC(C(=O)OC)C1=O (stereo not drawn)
- TGI (ACHN renal): > 100 µM
- TGI (SF-268 CNS): > 100 µM
- TGI (NCI/ADR-RES ovarian): > 100 µM
- TGI (DU-145 prostate): > 100 µM
- TGI (SN12C renal): > 100 µM
- TGI (M14 melanoma): > 100 µM
- TGI (SNB-19 CNS): > 100 µM
- TGI (CAKI-1 renal): > 100 µM
- TGI (HOP-62 NSCLC): > 100 µM

Compound: CC(=O)N=C1N(/C=C2\C(=O)Oc3ccccc3C2=O)C(=O)/C(=C/c2ccc(OC(C)=O)cc2)N1C
- TGI (ACHN renal): > 100 µM
- TGI (SF-268 CNS): > 100 µM
- TGI (NCI/ADR-RES ovarian): > 100 µM
- TGI (DU-145 prostate): > 100 µM
- TGI (SN12C renal): > 100 µM
- TGI (SK-MEL-2 melanoma): > 100 µM
- TGI (M14 melanoma): > 100 µM
- TGI (CAKI-1 renal): > 100 µM
- TGI (HOP-62 NSCLC): > 100 µM

Compound: CCCCC(=O)NS(=NC(=O)c1ccccc1)C(Cl)(Cl)Cl (stereo not drawn)
- TGI (ACHN renal): > 100 µM
- TGI (SF-268 CNS): > 100 µM
- TGI (NCI/ADR-RES ovarian): > 100 µM
- TGI (DU-145 prostate): > 100 µM
- TGI (SN12C renal): > 100 µM
- TGI (SK-MEL-2 melanoma): > 100 µM
- TGI (M14 melanoma): > 100 µM
- TGI (SNB-19 CNS): > 100 µM
- TGI (HOP-62 NSCLC): > 100 µM

Compound: N/C(=N\S(=O)(=O)c1ccc(S(=O)(=O)c2ccccc2)s1)Nc1ccc(Cl)cc1
- TGI (ACHN renal): 71.4 µM
- TGI (SF-268 CNS): 47.7 µM
- TGI (NCI/ADR-RES ovarian): 45.1 µM
- TGI (DU-145 prostate): 55.3 µM
- TGI (SN12C renal): 36.3 µM
- TGI (SK-MEL-2 melanoma): 31.6 µM
- TGI (M14 melanoma): 37.3 µM
- TGI (SNB-19 CNS): > 100 µM
- TGI (HOP-62 NSCLC): 39.3 µM
